Results on one compound are retold here after patent US10800815B2, “Kv1.3 potassium channel antagonists” (cgtx-Peptide Development GmbH, priority 2014, dated 2020).

Data set [1] deals with T1, Kv1.3 channels endogenously expressed in TEM cells (Homo sapiens, UniProt P22001).
T1 construct: endogenously expressed Kv1.3 channels in TEM cells; endogenous in cells
The experiment in a line: Block of Kv1.3 currents in isolated human TEM cells (Example 4). Conditions: incompletely folded peptide. The data set is classed as cell-based. The text has this: The insect cell line Spodoptera frugiperda (Sf21) was used in combination with a Baculovirus infection system for the heterologous expression of recombinant ion channels. Sf21 cells offer highly specific protein expression and correct posttranslational modifications resulting in functional channels with proposed comparability of electrophysiological parameters of ion channels in vivo. Therefore, it was necessary to compare the electrophysiological properties of the potassium selective ion channel Kv1.3 expressed in Sf21 cells and endogenously expressed Kv1.3 channels in TEM cells.
For the comparison of characteristic voltage dependent Kv1.3 channel activation a typical voltage protocol from −60 mV to +60 mV in 20 mV steps (activation pulse 200 ms) was used. Cells were clamped at a holding potential of −100 mV.
The maximal observed current, which clearly originates from Kv1.3 activity, and the applied voltage allows to assess the total conductivity of all Kv1.3 channels. Accordingly, the number of channels can be extracted using the known conductivity of a single Kv1.3 channel. […] By variation of the infection conditions, it is possible to control the expression level of Kv1.3 in Sf21 cells, according to the needs of the investigation. Under our standard conditions a maximal current of 2-5 nA, a conductance of 33-50 nS and a number of 2500-3800 channels per cell can be estimated. […]

For data set [2], the system named is white blood cells in peripheral blood. As to the kind of experiment: Haematology (WBC, neutrophil granulocytes, lymphocytes) in AIA rats. The data set is classed as in vivo, rat. The procedure:
For the blood withdrawal the animals were narcotized briefly, the tail was disinfected and the tail vein was punctured with a cannula, 50 μl of blood were withdrawn with a heparin coated pipette and mixed with 5 μl of a stabilising agent (CPD) and 1 μl heparin (1.5 U/μl diluted 1:4 in 0.9% NaCl).
White Blood Cells (WBC) were counted with a Coulter Counter in the automatic mode.
Blood samples were taken regularly for monitoring of hematological parameters. Haematological parameters were assessed in all animals weekly before induction, at day of induction and 10 days after induction (days −21, −14, −7, 0 and 10). […] Absolute counts of white blood cells (WBC), neutrophil granulocytes and lymphocytes were analyzed among others, the last two also stated in percentage of total WBC. EDTA whole blood of seven individuals from both vehicle and cgtx-544 peptide therapy group was measured with Sysmex XT-2000i.
For screening the state of health of all individuals, complete haemograms were used again. EDTA whole blood of seven individuals from both MTX high-dose and low-dose therapy groups were measured with Sysmex XT-2000i.V weekly before induction, at day of induction and 4 and 7 days after induction (day −21, −14, −7, 0, 4 and 7; MTX low-dose therapy group additionally on day −3, when i.v. application started).

Data set [3] deals with T2, hERG (Homo sapiens, UniProt Q12809).
T2 construct: expressed in transfected cells; host or cells: HEK cells stably expressing hERG
As to the kind of experiment: Patchliner automated patch clamp of hERG currents in HEK cells, two-point screening (Example 2). Conditions: for Normalized Block of hERG current: steady state at end of application. The data set is classed as cell-based. The procedure:
To determine binding to Kv1.3, Jurkat cells endogenously expressing Kv1.3 were used. For binding to hERG, HEK cells stably expressing hERG were used.
Cell culture was performed using standard cell culture techniques. In brief, cells were grown on 10 cm culture dishes or T75 culture flasks in DMEM-based media. With a confluence of about 60-80%, cells were split every 2-3 days. For recordings on the Patchliner (Nanion), Jurkat cells were resuspended and then spinned in a centrifuge. Before spinning, HEK cells were treated with Trypsin, to detach them from the dish surface. After spinning, cells were resuspended in external recording buffer to a density of approximately 1-2 million cells per ml.
Internal recording solution: 50 mM KCl • 10 mM NaCl • 60 mM KF • 20 mM EGTA • 10 mM HEPES/KOH, pH 7.2, (Osm: ˜290 mOsm)
5 mM Mg-ATP and 0.3 mM Na-GTP were added fresh to the internal solution and pH adjusted to 7.2.
External recording buffer: 140 mM NaCl • 4 mM KCl • 1 mM MgCl2 • 2 mM CaCl2 • 5 mM D-Glucose monohydrate • 10 mM HEPES/NaOH pH 7.4, (Osm: ˜298 mOsm) Compounds
Electrophysiological recordings were performed with a Patchliner, recording up to 8 channels, simultaneously. The Patchliner is an automated patch clamp system utilizing borosilicate glass chips (NPC-16) for planar patch clamp, and operating via the PatchControlHT software. NPC-16 chips with a resistance of 3-5 MΩ for Jurkat cells and 2-3 MΩ for HEK cells were used for recordings. During recordings, cells were kept in a “cell hotel” where they were periodically pipetted up and down to maintain viability. […]
For pharmacology on hERG, peak amplitude at the 2nd −40 mV step (tail current) was calculated using online analysis functions in PatchMaster. The leak (calculated from the 1st step to −40 mV) was subtracted from this peak to calculate the true peak and these could be plotted as a function of time.
Values were exported to Excel to calculate concentration response curves in Igor. […] A Hill equation was fitted to estimate the IC50 for each compound and IC50 was calculated relative to maximum block. […]
On the technique in general: Patch clamp records ionic current or voltage across a cell membrane.

A short description of data set [4]: Biochemical properties: isoelectric point. The data set is classed as physicochemical.

T2 sequence (Q12809 whole entry): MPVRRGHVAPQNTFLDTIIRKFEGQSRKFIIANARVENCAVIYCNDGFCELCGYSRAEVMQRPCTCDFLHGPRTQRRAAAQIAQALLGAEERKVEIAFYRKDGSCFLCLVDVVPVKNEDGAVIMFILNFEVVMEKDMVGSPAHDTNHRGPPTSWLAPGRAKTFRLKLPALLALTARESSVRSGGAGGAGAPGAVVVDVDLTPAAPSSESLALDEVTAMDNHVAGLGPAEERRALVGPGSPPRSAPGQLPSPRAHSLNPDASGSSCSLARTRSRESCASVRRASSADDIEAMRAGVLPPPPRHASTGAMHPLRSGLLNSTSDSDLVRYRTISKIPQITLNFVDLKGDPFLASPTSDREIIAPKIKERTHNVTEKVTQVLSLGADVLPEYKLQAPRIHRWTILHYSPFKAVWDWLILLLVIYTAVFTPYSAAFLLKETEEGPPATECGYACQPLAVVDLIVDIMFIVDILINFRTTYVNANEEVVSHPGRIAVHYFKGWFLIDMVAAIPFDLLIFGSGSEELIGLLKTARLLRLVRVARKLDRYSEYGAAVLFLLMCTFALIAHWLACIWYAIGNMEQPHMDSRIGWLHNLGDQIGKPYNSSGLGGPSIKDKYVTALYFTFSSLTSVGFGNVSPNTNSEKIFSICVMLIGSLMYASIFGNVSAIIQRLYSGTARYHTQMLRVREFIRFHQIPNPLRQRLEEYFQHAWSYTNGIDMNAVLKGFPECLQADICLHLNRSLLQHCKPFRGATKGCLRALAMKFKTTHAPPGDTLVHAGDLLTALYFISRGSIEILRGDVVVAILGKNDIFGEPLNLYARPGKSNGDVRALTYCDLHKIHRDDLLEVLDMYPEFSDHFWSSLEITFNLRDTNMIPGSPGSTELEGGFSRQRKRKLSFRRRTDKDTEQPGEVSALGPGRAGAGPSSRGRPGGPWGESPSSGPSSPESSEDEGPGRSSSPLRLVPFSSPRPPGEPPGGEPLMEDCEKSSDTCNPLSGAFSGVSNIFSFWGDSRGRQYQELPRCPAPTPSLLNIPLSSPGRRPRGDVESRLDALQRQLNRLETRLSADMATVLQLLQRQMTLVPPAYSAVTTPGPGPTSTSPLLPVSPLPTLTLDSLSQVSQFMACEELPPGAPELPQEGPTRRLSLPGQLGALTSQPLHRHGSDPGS
T1 sequence (P22001 whole entry): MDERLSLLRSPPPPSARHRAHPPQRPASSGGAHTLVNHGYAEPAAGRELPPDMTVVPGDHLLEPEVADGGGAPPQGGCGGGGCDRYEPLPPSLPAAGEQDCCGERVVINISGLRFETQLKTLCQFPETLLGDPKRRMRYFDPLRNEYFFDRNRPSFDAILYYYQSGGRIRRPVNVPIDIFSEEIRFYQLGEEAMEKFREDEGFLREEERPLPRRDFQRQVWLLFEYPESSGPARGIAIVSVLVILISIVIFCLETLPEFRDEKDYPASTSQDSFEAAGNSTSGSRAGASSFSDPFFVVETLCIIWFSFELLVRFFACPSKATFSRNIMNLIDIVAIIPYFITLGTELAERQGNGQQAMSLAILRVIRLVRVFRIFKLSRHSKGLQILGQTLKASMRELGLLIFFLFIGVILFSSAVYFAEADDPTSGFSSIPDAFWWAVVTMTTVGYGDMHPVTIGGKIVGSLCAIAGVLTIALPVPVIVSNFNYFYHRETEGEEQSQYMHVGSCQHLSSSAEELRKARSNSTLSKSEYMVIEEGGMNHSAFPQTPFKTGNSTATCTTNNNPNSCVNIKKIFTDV

With `CC[C@H](C)[C@H](NC(=O)[C@@H](N)[C@@H](C)O)C(=O)N[C@H](C(=O)N[C@@H](CC(N)=O)C(=O)N[C@H](C(=O)N[C@@H](CCCCN)C(=O)N[C@H]1CSSC[C@@H]2NC(=O)[C@H](CCCCN)NC(=O)CNC(=O)[C@H](Cc3ccc(O)cc3)NC(=O)[C@@H]3CCCN3C(=O)[C@@H]3CSSC[C@@H](C(=O)O)NC(=O)[C@H](CCCNC(=N)N)NC(=O)[C@H](CC(N)=O)NC(=O)[C@@H]4CSSC[C@H](NC(=O)[C@@H]5CCCN5C(=O)[C@@H]5CCCN5C(=O)[C@H](CC(C)C)NC(=O)[C@H](CSSC[C@H](NC(=O)[C@H](CCCCN)NC(=O)[C@H](CCCNC(=N)N)NC(=O)[C@H](CC(N)=O)NC(=O)[C@H](CCSC)NC2=O)C(=O)N[C@@H](CCCCN)C(=O)N4)NC(=O)[C@H](CCC(N)=O)NC(=O)[C@H](CCCCN)NC(=O)[C@@H]2CCCN2C(=O)[C@H](CO)NC(=O)[C@H]([C@@H](C)O)NC1=O)C(=O)N[C@@H](CCCCN)C(=O)N[C@@H](C)C(=O)N[C@@H](CCC(N)=O)C(=O)N[C@@H]([C@@H](C)O)C(=O)NCC(=O)N3)C(C)C)[C@@H](C)CC` [Compound 7], the “Kv1.3 block on human TEM cells compared with Kv1.3 transfected Sf21 cells” value in data set [1] is “the same values”. Moreover, in data set [2] (1 mg/kg 1× daily i.v.), the generalized immunosuppression entry is “did not show a generalized immunosuppression”. Further, the “WBC, neutrophil granulocytes and lymphocytes, absolute and relative cell counts” value in data set [2] (curative treatment, 1 mg/kg daily i.v.) was “comparable to vehicle treated individuals”; in data set [2] (preventive treatment, daily i.v. from day −3), “comparable to vehicle treated individuals”. Further, the “Normalized Block of hERG current” value in data set [3] (5 μM) was 0.04; in data set [3] (10 μM) it was 0.07. In addition, in data set [3] (hERG expressing HEK cells), the “effect on hERG current” value is listed as “only low effects”. The same compound yielded an Isoelectric point in data set [4] of 9.29.
